The results in this text go back to patent US20030166645A1, “Novel nitrofuran-containing heterocyclic compounds and uses thereof” (priority 2001, published 2003).

What all share (experiment): Microdilution antimicrobial susceptibility test (MIC)
Holding throughout (format): cell-based
On the technique in general: In broth dilution the organism is exposed to a series of concentrations in liquid medium.

One assay deals with E coli. The settings on record: broth microdilution, 18-24 h, MIC = 90% inhibition of growth; for MIC: read-out: MIC E coli MIC2.
The next assay relates to S aureus. The settings on record: broth microdilution, 18-24 h, MIC = 90% inhibition of growth; for MIC: read-out: MIC S aureus MIC2.
A further assay has as its system E faecalis. Conditions: broth microdilution, 18-24 h, MIC = 90% inhibition of growth; for MIC: read-out: MIC E faecalis MIC2.
The subject of another assay is S pneumoniae. The settings on record: broth microdilution, 18-24 h, CO2-enriched atmosphere, MIC = 90% inhibition of growth; for MIC: read-out: MIC S pneumoniae MIC6.
The subject of a further assay is M. catarrhalis. Conditions: broth microdilution, 18-24 h, MIC = 90% inhibition of growth; for MIC: Moraxella catarrhalis, read-out: MIC M. catarrhalis MIC2.
The subject of the next assay is H influenzae. Conditions: broth microdilution, 18-24 h, MIC = 90% inhibition of growth; for MIC: read-out: MIC H influenzae MIC4.
A further assay concerns S cerevisiae. The settings on record: broth microdilution, 18-24 h, MIC = 90% inhibition of growth; for MIC: read-out: MIC S cerevisiae MIC7.
The subject of a further assay is E coli (ImpA). The settings on record: broth microdilution, 18-24 h, MIC = 90% inhibition of growth; for MIC: read-out: MIC E coli (ImpA) MIC9. The procedure: Microdilution Antimicrobial Susceptibility Test Assay
Stock solutions of tested compounds were prepared in N,N-dimethylformamide (DMF) at a concentration of 5 mg/mL. Working solutions of the tested compounds were then prepared from the stock solutions, in Mueller-Hinton broth (MHB) with a starting concentration of 64 μg/mL.
Bacterial inocula were prepared from overnight culture (i.e., one fresh colony from agar plate in 5 ml MHB; H. influenzae was grown in MHB with the addition of yeast extract, haematin, and NAD), centrifuged 2×5 min/3000 rpm (for S. pneumoniae and H. influenzae, 2×10 min/3000 rpm), and dispensed in 5 ml of fresh MHB each time, such that the bacterial suspension is diluted to obtain 100 colony forming units (cfu) in a microplate well (100 μl total volume).
Microplate wells were filled with two-fold dilutions of test compound (50 Al), starting with 64 μg/ml. Wells were then filled with 50 μl of bacterial inoculum (final volume: 100 μl/well). The plates were incubated at 37° C. for 18-24 hours (S. pneumoniae was grown in a CO2-enriched atmosphere).

Values after ≈ are worked out from the molar mass of the structure shown.

Consider `Nn1c(S)nnc1-c1ccc([N+](=O)[O-])o1` [Compound 110], for which the MIC in the assay on E coli is 16 µg/mL (≈ 70.4 µM); in the assay on S aureus, 32 µg/mL (≈ 141 µM); in the assay on E faecalis, over 128 µg/mL; in the assay on S pneumoniae, 32 µg/mL (≈ 141 µM); in the assay on M. catarrhalis it was 32 µg/mL (≈ 141 µM); in the assay on H influenzae, 8 µg/mL (≈ 35.2 µM). For the same molecule, in the assay on S cerevisiae, the MIC came to 64 µg/mL (≈ 282 µM).

`O=[N+]([O-])c1ccc(-c2nnc(S)n2-c2ccc(Br)c(Cl)c2)o1` [Compound 142]: the “MIC E coli MIC2” value with E coli is over 64 µg/mL. Moreover, the “MIC E coli (ImpA) MIC9” value against E coli (ImpA) is under 0.12 µg/mL. Also, the “MIC S aureus MIC2” value against S aureus was under 0.12 µg/mL. Besides, the “MIC E faecalis MIC2” value in the assay on E faecalis is 1 µg/mL (≈ 2.49 µM). Besides, in the assay on S pneumoniae, the “MIC S pneumoniae MIC6” value amounted to 2 µg/mL (≈ 4.98 µM). In the assay on M. catarrhalis, the “MIC M. catarrhalis MIC2” value is under 0.12 µg/mL. Further, in the assay on H influenzae, the “MIC H influenzae MIC4” value turned out to be 8 µg/mL (≈ 19.9 µM). Further, the “MIC S cerevisiae MIC7” value with S cerevisiae is 64 µg/mL (≈ 159 µM).

As to `C=CCn1c(S)nnc1-c1ccc([N+](=O)[O-])o1` [Compound 130], in the assay with E coli, the “MIC E coli MIC2” value is over 64 µg/mL. Besides, in the assay with E coli (ImpA), the “MIC E coli (ImpA) MIC9” value was determined as 64 µg/mL (≈ 254 µM). Besides, the “MIC S aureus MIC2” value in the assay with S aureus is over 64 µg/mL. The “MIC E faecalis MIC2” value in the assay on E faecalis was 64 µg/mL (≈ 254 µM). Further, the “MIC S pneumoniae MIC6” value against S pneumoniae is 16 µg/mL (≈ 63.4 µM). In addition, the “MIC M. catarrhalis MIC2” value against M. catarrhalis came to 4 µg/mL (≈ 15.9 µM). Further, the “MIC H influenzae MIC4” value against H influenzae is 32 µg/mL (≈ 127 µM). Moreover, in the assay with S cerevisiae, the “MIC S cerevisiae MIC7” value is over 64 µg/mL.

With `CCCCn1c(S)nnc1-c1ccc([N+](=O)[O-])o1` [Compound 133], the “MIC E coli MIC2” value against E coli is over 64 µg/mL. In addition, the “MIC E coli (ImpA) MIC9” value in the assay with E coli (ImpA) was determined as 64 µg/mL (≈ 239 µM). Further, the “MIC S aureus MIC2” value against S aureus stood at 64 µg/mL (≈ 239 µM). In addition, the “MIC E faecalis MIC2” value in the assay on E faecalis was over 64 µg/mL. Also, the “MIC S pneumoniae MIC6” value against S pneumoniae amounted to 64 µg/mL (≈ 239 µM). The “MIC M. catarrhalis MIC2” value against M. catarrhalis was found to be 32 µg/mL (≈ 119 µM). For the same molecule, the “MIC H influenzae MIC4” value against H influenzae came out at 32 µg/mL (≈ 119 µM). Besides, the “MIC S cerevisiae MIC7” value against S cerevisiae is 64 µg/mL (≈ 239 µM).

As for `CSc1nnc(-c2ccc([N+](=O)[O-])o2)n1C` [Compound 124], the MIC was determined as 64 µg/mL (≈ 266 µM) with E coli; 2 µg/mL (≈ 8.32 µM) with E coli (ImpA); 16 µg/mL (≈ 66.6 µM) in the assay with S aureus; 32 µg/mL (≈ 133 µM) in the assay with E faecalis; 8 µg/mL (≈ 33.3 µM) in the assay on S pneumoniae; 1 µg/mL (≈ 4.16 µM) in the assay on M. catarrhalis. The MIC in the assay with H influenzae worked out at 8 µg/mL (≈ 33.3 µM); in the assay on S cerevisiae it was 16 µg/mL (≈ 66.6 µM).

`O=[N+]([O-])c1ccc(-c2nnc(S)n2-c2ccc(F)cc2)o1` [Compound 136]: in the assay with E coli, the “MIC E coli MIC2” value is over 64 µg/mL. Further, the “MIC E coli (ImpA) MIC9” value in the assay on E coli (ImpA) was determined as 16 µg/mL (≈ 52.2 µM). For the same molecule, in the assay on S aureus, the “MIC S aureus MIC2” value is 32 µg/mL (≈ 104 µM). The “MIC E faecalis MIC2” value against E faecalis is 64 µg/mL (≈ 209 µM). Besides, the “MIC S pneumoniae MIC6” value against S pneumoniae is 8 µg/mL (≈ 26.1 µM). In addition, the “MIC M. catarrhalis MIC2” value with M. catarrhalis was 4 µg/mL (≈ 13.1 µM). Besides, the “MIC H influenzae MIC4” value in the assay with H influenzae is 16 µg/mL (≈ 52.2 µM). The “MIC S cerevisiae MIC7” value in the assay with S cerevisiae was 64 µg/mL (≈ 209 µM).

For `Cn1c(SCCCO)nnc1-c1ccc([N+](=O)[O-])o1` [Compound 116, 5-[2-(5-Nitro)furyl]-4-methyl-4H-1,2,4-triazole-3-(3-hydroxypropyl)-thiol], the MIC is 8 µg/mL (≈ 28.1 µM) in the assay with E coli; 1 µg/mL (≈ 3.52 µM) with E coli (ImpA); 8 µg/mL (≈ 28.1 µM) in the assay on S aureus; 8 µg/mL (≈ 28.1 µM) in the assay with E faecalis; 8 µg/mL (≈ 28.1 µM) in the assay on S pneumoniae; 0.5 µg/mL (≈ 1.76 µM) in the assay with M. catarrhalis. Besides, the MIC in the assay with H influenzae is 16 µg/mL (≈ 56.3 µM); in the assay on S cerevisiae it was over 64 µg/mL.

In the case of `CCn1c(S)nnc1-c1ccc([N+](=O)[O-])o1` [Compound 126], the MIC in the assay on E coli is over 64 µg/mL; with S aureus it was over 64 µg/mL; in the assay on E faecalis, 64 µg/mL (≈ 266 µM); with S pneumoniae it was 16 µg/mL (≈ 66.6 µM); in the assay with M. catarrhalis it was 4 µg/mL (≈ 16.6 µM); in the assay with H influenzae it was 32 µg/mL (≈ 133 µM). Further, in the assay on S cerevisiae, the MIC is over 64 µg/mL.

As to `O=[N+]([O-])c1ccc(-c2nnc(S)n2-c2ccc(Cl)cc2)o1` [Compound 139, 4-(4-Chlorophenyl)-5-(5-nitrofuranyl)-4H-1,2,4-triazol-3-thiol], the MIC in the assay with E coli was over 64 µg/mL; in the assay with E coli (ImpA), under 0.12 µg/mL; in the assay with S aureus, 0.25 µg/mL (≈ 0.775 µM); with E faecalis it was 2 µg/mL (≈ 6.2 µM); with S pneumoniae it was 2 µg/mL (≈ 6.2 µM); with M. catarrhalis, under 0.12 µg/mL. In addition, the MIC in the assay on H influenzae is 2 µg/mL (≈ 6.2 µM); with S cerevisiae, 32 µg/mL (≈ 99.2 µM).
